Consider 15 compounds from patent US20140023611A1 (priority 2010, published 2014).

A value given as a limit tells only on which side of the number the result lay.

One assay has as its target T1, rat NaP2b (SLC34A2) (Rattus norvegicus, UniProt Q9JJ09).
T1 construct: host or cells: HEK293
T1 sequence (Q9JJ09 1-695): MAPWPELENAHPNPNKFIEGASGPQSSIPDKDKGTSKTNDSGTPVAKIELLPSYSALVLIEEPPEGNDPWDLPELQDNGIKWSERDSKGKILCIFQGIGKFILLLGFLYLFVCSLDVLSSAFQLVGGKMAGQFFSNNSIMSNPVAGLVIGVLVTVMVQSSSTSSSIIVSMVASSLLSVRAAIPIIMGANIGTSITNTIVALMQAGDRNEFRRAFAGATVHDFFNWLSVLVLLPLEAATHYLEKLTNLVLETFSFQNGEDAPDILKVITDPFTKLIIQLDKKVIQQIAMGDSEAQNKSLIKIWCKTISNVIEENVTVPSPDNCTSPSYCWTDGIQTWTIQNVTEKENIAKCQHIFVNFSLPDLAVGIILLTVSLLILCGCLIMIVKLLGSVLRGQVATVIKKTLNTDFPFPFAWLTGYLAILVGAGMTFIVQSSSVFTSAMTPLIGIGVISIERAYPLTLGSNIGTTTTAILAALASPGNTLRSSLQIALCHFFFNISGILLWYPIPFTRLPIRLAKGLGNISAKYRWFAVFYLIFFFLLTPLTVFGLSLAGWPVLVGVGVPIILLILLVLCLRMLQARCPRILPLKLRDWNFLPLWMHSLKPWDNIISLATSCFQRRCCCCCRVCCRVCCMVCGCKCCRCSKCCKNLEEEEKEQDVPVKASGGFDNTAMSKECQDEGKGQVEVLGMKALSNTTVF
Nature of the assay: Inhibition of NaP2b-mediated Pi (33P) uptake in transfected HEK293 cells, rat NaP2b. It counts as cell-based. Particulars: 33P Pi uptake, 0.1 mM phosphate, value given as pIC50 range. A digest of the protocol: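 The cells transiently expressed NaP2b after Lipofectamine transfection. Each compound was run in duplicate over twelve concentrations, 0.1 nM–30 uM.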

The target in the next assay is T2, human NaP2b (SLC34A2) (Homo sapiens, UniProt O95436).
T2 construct: host or cells: HEK293
T2 sequence (O95436 1-690): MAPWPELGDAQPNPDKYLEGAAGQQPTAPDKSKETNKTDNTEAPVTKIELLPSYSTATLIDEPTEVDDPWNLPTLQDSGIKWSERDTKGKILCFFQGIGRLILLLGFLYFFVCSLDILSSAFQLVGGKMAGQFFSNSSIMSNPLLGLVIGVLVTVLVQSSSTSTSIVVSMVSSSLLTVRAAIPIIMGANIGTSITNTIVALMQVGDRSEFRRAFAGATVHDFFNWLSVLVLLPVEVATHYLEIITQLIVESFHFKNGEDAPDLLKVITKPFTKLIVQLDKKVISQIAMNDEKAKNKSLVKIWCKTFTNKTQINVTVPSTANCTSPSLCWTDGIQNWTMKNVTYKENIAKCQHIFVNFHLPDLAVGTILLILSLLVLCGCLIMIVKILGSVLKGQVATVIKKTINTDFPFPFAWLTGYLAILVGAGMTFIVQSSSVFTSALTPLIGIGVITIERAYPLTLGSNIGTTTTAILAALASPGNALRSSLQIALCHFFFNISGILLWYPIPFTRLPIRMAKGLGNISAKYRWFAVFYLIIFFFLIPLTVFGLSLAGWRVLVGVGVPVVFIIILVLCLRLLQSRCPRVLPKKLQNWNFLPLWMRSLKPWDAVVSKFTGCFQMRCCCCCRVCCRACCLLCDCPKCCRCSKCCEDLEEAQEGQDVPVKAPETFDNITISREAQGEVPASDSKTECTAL
The experiment in a line: Inhibition of NaP2b-mediated Pi (33P) uptake in transfected HEK293 cells, human NaP2b. Particulars: read-out: pIC50 range for human NaP2b (converted). It is filed as cell-based. Here is the method: HEK293 cells were obtained from the American Type Culture collection and propagated per their instructions. Expression clones for rat and human NaP2b (SLC34A2) were obtained from Open Biosystems (Catalog numbers MRN1768-9510282, and MHS1010-99823026, respectively). The sequence of the human protein was mutated to insert a threonine after residue 37, and to introduce a N39D mutation.
The rate of phosphate (Pi) uptake into HEK293 cells was measured using a modification of the method described by Mohrmann et al. (Mohrmann, I., Mohrmann, M., Biber, J., and Murer, H. (1986) Am. J. Phys. 250(3 Pt 1):G323-30.) Transfected HEK293 cells were treated with a pharmacological agent to minimize endogenous PiT-mediated phosphate transport activity, such that the only remaining sodium-dependent phosphate transport activity is that which was bestowed by introduction of the NaP2b genes.
Cells were seeded into 96-well plates at 25,000 cells/well and cultured overnight. Lipofectamine 2000 (Invitrogen) was used to introduce the NaP2b cDNA, and the cells were allowed to approach confluence during a second overnight incubation. […] Cells were then overlayed with either choline uptake buffer or sodium uptake buffer (14 mM Tris, 137 mM sodium chloride, 5.4 mM KCl, 2.8 mM CaCl2, 1.2 mM MgSO4, 100 uM KH2PO4, PiT-silencing agent, 1 mg/mL Bovine Serum Albumin, pH 7.4) containing 6-9 uCi/mL ^33P orthophosphoric acid (Perkin Elmer) and test compound. Each compound was tested at twelve concentrations ranging from 0.1 nM to 30 uM. Assays were run in duplicate.
After incubation for 3-30 minutes at room temperature, assay mixtures were removed, and the cells were washed twice with ice cold stop solution (137 mM sodium chloride, 14 mM Tris, pH 7.4). Cells were lysed by addition of 20 μL 0.1% Tween 80 followed by 100 μL scintillation fluid, and counted using a TopCount (Perkin Elmer).
pIC50 (the negative log of the IC50) values of the test compounds were calculated using GraphPad Prism.

Consider `CCN(CC)c1ccc(NC(=O)c2cccc(CCCOCCOCCOCCOCCC(=O)N3CCC[C@H](C(=O)N(C)CCOCCOCCOCCOCCOCCOCCOC)C3)c2)c(-c2cc(C(=O)NCc3cccc(C(F)(F)F)c3)ccn2)c1` [Example 257, (S)-2-(2-(3-(16-(3-(2,5,8,11,14,17,20-heptaoxadocosan-22-yl(methyl)carbamoyl)piperidin-1-yl)-16-oxo-4,7,10,13-tetraoxahexadecyl)benzamido)-5-(diethylamino)phenyl)-N-(3-(trifluoromethyl)benzyl)isonicotinamide], for which the IC50 on rat NaP2b (SLC34A2) is 1000 to 7940 nM; at human NaP2b (SLC34A2) it was below 1000 nM.

As for `O=C(O)CCSCc1cccc(C(=O)Nc2ccc(N3CCCCC3)cc2-c2cc(Nc3cccc(C(F)(F)F)c3)ncn2)c1` [Example 3.10, 3-((3-((4-(Piperidin-1-yl)-2-(6-((3-(trifluoromethyl)phenyl)amino)pyrimidin-4-yl)phenyl)carbamoyl)benzyl)thio)propanoic acid], the IC50 was 1000 to 7940 nM against rat NaP2b (SLC34A2) and 10000 to 31600 nM at human NaP2b (SLC34A2).

`CCN(CC)c1ccc(NC(=O)c2cccc(CCCOCCOCCOCCOCCC(=O)NC(CO)(CO)CO)c2)c(-c2cc(C(=O)N[C@H]3CCCc4ccccc43)ccn2)c1` [Example 283]: the values for the IC50 against rat NaP2b (SLC34A2) and at human NaP2b (SLC34A2) were below 1000 nM and 1000 to 7940 nM, respectively.

Regarding `CCN(CC)c1ccc(NC(=O)c2cccc(C(=O)N(C)CCN(CCOC)CCOCCOCCOCCC(=O)NC(C)(C)C)c2)c(-c2cc(C(=O)NCc3cccc(C(F)(F)F)c3)ccn2)c1` [Example 337, N^1-(4-(Diethylamino)-2-(4-(3-(trifluoromethyl)benzylcarbamoyl)pyridin-2-yl)phenyl)-N3-(3-(2-methoxyethyl)-17,17-dimethyl-15-oxo-6,9,12-trioxa-3,16-diazaoctadecyl)-N^3-methylisophthalamide], the IC50 at rat NaP2b (SLC34A2) and at human NaP2b (SLC34A2) was 1000 to 7940 nM throughout.

With `CN(CCN1CCOCC1)C(=O)c1cccc(C(=O)Nc2ccc(OC3CCC3)cc2-c2cc(C(=O)N[C@H]3CCCc4ccccc43)ccn2)c1` [Example 132, N1-(2-(4-(((S)-1,2,3,4-tetrahydronaphthalen-1-yl)carbamoyl)pyridin-2-yl)-4-cyclobutoxyphenyl)-N3-methyl-N3-(2-morpholinoethyl)isophthalamide], the IC50 against rat NaP2b (SLC34A2) and at human NaP2b (SLC34A2) was below 1000 nM in each case.

For the compound `O=C(O)CCOCCOCCOCCOCCCc1cccc(C(=O)Nc2ccc(N3CCCCC3)cc2-c2cc(C(=O)NCc3cccc(C(F)(F)F)c3)ccn2)c1` [Example 303, 16-(3-(4-(piperidin-1-yl)-2-(4-(3-(trifluoromethyl)benzylcarbamoyl)pyridin-2-yl)phenylcarbamoyl)phenyl)-4,7,10,13-tetraoxahexadecan-1-oic acid], the IC50 against rat NaP2b (SLC34A2) was 1000 to 7940 nM; at human NaP2b (SLC34A2), below 1000 nM.

In the case of `CCN(CC)c1ccc(NC(=O)c2cccc(COCCOCCOCCOCCOCCOCCN(C)CCN3CCOCC3)c2)c(-c2cc(C(=O)NCc3cccc(C(F)(F)F)c3)ccn2)c1` [Example 179, 2-(5-(diethylamino)-2-(3-(20-methyl-22-morpholino-2,5,8,11,14,17-hexaoxa-20-azadocosyl)benzamido)phenyl)-N-(3-(trifluoromethyl)benzyl)isonicotinamide], the IC50 on rat NaP2b (SLC34A2) and on human NaP2b (SLC34A2) was 1000 to 7940 nM in each case.

As for `CCN(CC)c1ccc(NC(=O)c2cccc(CCCOCCOCCOCCOCCC(=O)N3CCN(S(=O)(=O)C(C)C)CC3)c2)c(-c2cc(C(=O)NCc3cccc(C(F)(F)F)c3)ccn2)c1` [Example 292, 2-(5-(diethylamino)-2-(3-(16-(4-(isopropylsulfonyl)piperazin-1-yl)-16-oxo-4,7,10,13-tetraoxahexadecyl)benzamido)phenyl)-N-(3-(trifluoromethyl)benzyl)isonicotinamide], the IC50 is 1000 to 7940 nM on rat NaP2b (SLC34A2) and below 1000 nM on human NaP2b (SLC34A2).

For `CCN(CC)c1ccc(NC(=O)c2cccc(CCCOCCOCCOCCOCCC(=O)NCCOCCOCCOCCOCCOCCOCCOCCOC)c2)c(-c2cc(C(=O)N[C@H]3CCCc4ccccc43)ccn2)c1` [Example 279], the IC50 against rat NaP2b (SLC34A2) and at human NaP2b (SLC34A2) was 1000 to 7940 nM throughout.

As to `CN(CCO)C(=O)c1cccc(C(=O)Nc2ccc(N3CCCCC3)cc2-c2cc(C(=O)NC3CCCc4ccccc43)ccn2)c1` (stereo in doubt) [Example 115, (S)—N^1-(2-hydroxyethyl)-N′-methyl-N^3-(4-(piperidin]-yl)-2-(4-((1,2,3,4-tetrahydronaphthalen-1-yl)carbamoyl)pyridin-2-yl)phenyl)isophthalamide], the IC50 against rat NaP2b (SLC34A2) and on human NaP2b (SLC34A2) was below 1000 nM throughout.

Consider `COc1ccc(CNc2cc(-c3cc(N4CCCCC4)ccc3NC(=O)c3cccc(CSCCC(=O)O)c3)ncn2)cc1OC` [Example 3.6, 3-((3-((2-(6-((3,4-Dimethoxybenzyl)amino)pyrimidin-4-yl)-4-(piperidin-1-yl)phenyl)carbamoyl)benzyl)thio)propanoic acid], for which the IC50 on rat NaP2b (SLC34A2) and on human NaP2b (SLC34A2) was 10000 to 31600 nM each time.

In the case of `CN(Cc1cncn1C)C(=O)c1cccc(C(=O)Nc2ccc(N3CCCCC3)cc2-c2cc(C(=O)NCc3cccc(C(F)(F)F)c3)ccn2)c1` [Example 4.26], the IC50 against rat NaP2b (SLC34A2) was 1000 to 7940 nM; at human NaP2b (SLC34A2), below 1000 nM.

With `COCCOCCOCCOCCOCCOCCOCCN(C)C(=O)CCOCCOCCOCCOCCCc1cccc(C(=O)Nc2ccc(N3CCCCC3)cc2-c2cc(C(=O)NCc3cccc(C(F)(F)F)c3)ccn2)c1` [Example 276], the IC50 on rat NaP2b (SLC34A2) and at human NaP2b (SLC34A2) was 1000 to 7940 nM in each case.

Take `O=C(CCOCCOCCOCCOCCCc1cccc(C(=O)Nc2ccc(N3CCCCC3)cc2-c2cc(C(=O)NCc3cccc(C(F)(F)F)c3)ccn2)c1)NC(CO)(CO)CO` [Example 278]: the IC50 against rat NaP2b (SLC34A2) and on human NaP2b (SLC34A2) was 1000 to 7940 nM throughout.

Regarding `CCN(CC)c1ccc(NC(=O)c2cccc(CCCOCCOCCOCCOCCOCCC(=O)O)c2)c(-c2cc(C(=O)N[C@H]3CCCc4ccccc43)ccn2)c1` [Example 306, (S)-19-(3-(4-(diethylamino)-2-(4-(1,2,3,4-tetrahydronaphthalen-1-ylcarbamoyl)pyridin-2-yl)phenylcarbamoyl)phenyl)-4,7,10,13,16-pentaoxanonadecan-1-oic acid], the IC50 at rat NaP2b (SLC34A2) and at human NaP2b (SLC34A2) was below 1000 nM in each case.
